We go through 34 compounds from ChEMBL document CHEMBL1140258, “Synthesis and structure-activity relationships of biarylcarboxamide bis-aminopyrrolidine urea derived small-molecule antagonists of the melanin-concentrating hormone receptor-1 (MCH-R1)” (Bioorg Med Chem Lett, 2005).

In the test the target is Melanin-concentrating hormone receptor 1 (Homo sapiens, UniProt Q99705). Briefly: biochemical. In kind it is cell-based, HEK293.
Chain of Melanin-concentrating hormone receptor 1 (Q99705 whole entry): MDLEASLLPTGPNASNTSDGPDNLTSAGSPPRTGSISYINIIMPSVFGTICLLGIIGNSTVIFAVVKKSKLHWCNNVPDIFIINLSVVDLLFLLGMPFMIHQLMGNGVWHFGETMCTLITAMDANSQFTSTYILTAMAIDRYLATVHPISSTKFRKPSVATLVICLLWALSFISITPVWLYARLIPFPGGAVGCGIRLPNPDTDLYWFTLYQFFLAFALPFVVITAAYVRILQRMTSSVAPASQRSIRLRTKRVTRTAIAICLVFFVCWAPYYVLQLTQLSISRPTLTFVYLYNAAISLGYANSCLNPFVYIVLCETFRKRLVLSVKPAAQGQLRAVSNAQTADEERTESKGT
Description: Binding affinity towards the human MCH-R1 receptor by displacing [125I]Tyr13]-MCH radioligand in HEK293 cells, Data is average of 3 or more independent measurements
Turning to `Cc1ccc(-c2ccc(C(=O)N(C)[C@H]3CCN(C(=O)N(C)[C@@H]4CCN(C)C4)C3)s2)cc1`, the inhibition constant Ki – broadly, the dissociation constant of the complex between target and ligand, obtained from inhibition or displacement – amounted to 3 nM.

In turn, `CN1CC[C@H](N(C)C(=O)N2CC[C@@H](N(C)C(=O)c3ccc(-c4ccc(C(F)(F)F)cc4)s3)C2)C1` returned a Ki of 190 nM.

`CN1CC[C@@H](N(C)C(=O)N2CC[C@H](N(C)C(=O)c3ccc(-c4ccccc4C(F)(F)F)s3)C2)C1` came in with an inhibition constant (Ki) of 61 nM.

`CCc1ccc(-c2ccc(C(=O)N(C)[C@H]3CCN(C(=O)N(C)[C@@H]4CCN(C)C4)C3)s2)cc1` gave a Ki of 1 nM.

`CN1CC[C@@H](N(C)C(=O)N2CC[C@H](N(C)C(=O)c3ccc(-c4ccc(N(C)C)cc4)s3)C2)C1` returned a Ki of 7 nM.

In the case of `CN1CC[C@@H](N(C)C(=O)N2CC[C@H](N(C)C(=O)c3ccc(-c4ccc(S(C)(=O)=O)cc4)s3)C2)C1`, affinity was put at a Ki of 6000 nM.

In turn, `COc1ccc(-c2ccc(C(=O)N(C)[C@H]3CCN(C(=O)N(C)[C@@H]4CCN(C)C4)C3)s2)c(C)c1` came in with a Ki of 3 nM. This Ki is about 2000-fold lower than that of the compound before.

Consider `COc1ccccc1-c1ccc(C(=O)N(C)[C@H]2CCN(C(=O)N(C)[C@@H]3CCN(C)C3)C2)s1`, for which the Ki is 3400 nM.

In turn, `COc1cccc(-c2ccc(C(=O)N(C)[C@H]3CCN(C(=O)N(C)[C@@H]4CCN(C)C4)C3)s2)c1` gave a Ki of 900 nM.

On to `CN1CC[C@H](N(C)C(=O)N2CC[C@H](N(C)C(=O)c3ccc(-c4ccc(C(F)(F)F)cc4)s3)C2)C1`, for which affinity was put at a Ki of 14 nM.

As for `CN1CC[C@@H](N(C)C(=O)N2CC[C@H](N(C)C(=O)c3ccc(-c4cccc(Cl)c4)s3)C2)C1`, the affinity, expressed as Ki, was 320 nM.

Compound `Cc1ccc(-c2ccc(C(=O)N(C)[C@H]3CCN(C(=O)N(C)[C@@H]4CCN(C)C4)C3)s2)c(Cl)c1` returned a Ki of 1 nM.

Turning to `CC(C)c1ccc(-c2ccc(C(=O)N(C)[C@H]3CCN(C(=O)N(C)[C@@H]4CCN(C)C4)C3)s2)cc1`, the affinity corresponds to a Ki of 5 nM.

In the case of `CCOc1ccc(-c2ccc(C(=O)N(C)[C@H]3CCN(C(=O)N(C)[C@@H]4CCN(C)C4)C3)s2)c(Cl)c1`, affinity was put at a Ki of 2 nM.

Compound `Cc1ccccc1-c1ccc(C(=O)N(C)[C@H]2CCN(C(=O)N(C)[C@@H]3CCN(C)C3)C2)s1` gave a Ki of 19 nM.

Turning to `CN1CC[C@@H](N(C)C(=O)N2CC[C@H](N(C)C(=O)c3ccc(-c4ccc(OC(F)(F)F)cc4)s3)C2)C1`, affinity was put at a Ki of 4 nM. Against the preceding compound, the Ki is about 4.8-fold lower.

On to `Cc1ccc(-c2ccc(C(=O)N(C)[C@H]3CCN(C(=O)N(C)[C@@H]4CCN(C)C4)C3)s2)c(C)c1`, for which the Ki is 3 nM.

`CN1CC[C@@H](N(C)C(=O)N2CC[C@H](N(C)C(=O)c3ccc(-c4ccc(C(F)(F)F)cc4)s3)C2)C1`: affinity was put at a Ki of 2 nM.

`CN1CC[C@@H](N(C)C(=O)N2CC[C@H](N(C)C(=O)c3ccc(-c4ccc(Cl)cc4)cc3)C2)C1` had a Ki of 2 nM.

With `Cc1cc(Cl)ccc1-c1ccc(C(=O)N(C)[C@H]2CCN(C(=O)N(C)[C@@H]3CCN(C)C3)C2)s1`, the Ki came to 3 nM. This Ki lies about 1.5-fold higher than the previous one.

Consider `CN1CC[C@@H](N(C)C(=O)N2CC[C@H](N(C)C(=O)c3ccc(-c4ccccc4Cl)s3)C2)C1`, for which the Ki is 10 nM.

Take `COc1ccc(-c2ccc(C(=O)N(C)[C@H]3CCN(C(=O)N(C)[C@@H]4CCN(C)C4)C3)cc2)c(C)c1`: affinity was put at a Ki of 16 nM.

`COc1ccc(-c2ccc(C(=O)N(C)[C@H]3CCN(C(=O)N(C)[C@@H]4CCN(C)C4)C3)cc2)cc1` came in with a Ki of 5 nM.

On to `CN1CC[C@@H](N(C)C(=O)N2CC[C@H](N(C)C(=O)c3ccc(-c4ccc(Cl)cc4Cl)s3)C2)C1`, for which the inhibition constant (Ki) came to 3 nM.

In turn, `CN1CC[C@@H](N(C)C(=O)N2CC[C@H](N(C)C(=O)c3ccc(-c4ccc(C#N)cc4)s3)C2)C1` displayed an inhibitory constant (Ki) of 2400 nM.

With `CCOc1ccc(-c2ccc(C(=O)N(C)[C@H]3CCN(C(=O)N(C)[C@@H]4CCN(C)C4)C3)s2)cc1`, the inhibition constant (Ki) came to 63 nM.

Compound `COc1ccc(-c2ccc(C(=O)N(C)[C@H]3CCN(C(=O)N(C)[C@@H]4CCN(C)C4)C3)s2)cc1` registered a Ki of 4 nM.

Regarding `CN1CC[C@@H](N(C)C(=O)N2CC[C@H](N(C)C(=O)c3ccc(-c4cccc(C(F)(F)F)c4)s3)C2)C1`, the Ki was 1800 nM.

`CN1CC[C@@H](N(C)C(=O)N2CC[C@H](N(C)C(=O)c3ccc(-c4ccc(F)cc4)s3)C2)C1` displayed a Ki of 37 nM.

`Cc1cccc(C)c1-c1ccc(C(=O)N(C)[C@H]2CCN(C(=O)N(C)[C@@H]3CCN(C)C3)C2)s1` came in with a Ki of 310 nM. Against the preceding compound, the Ki is about 8.4-fold higher.

Turning to `CN1CC[C@@H](N(C)C(=O)N2CC[C@H](N(C)C(=O)c3ccc(-c4ccc(O)cc4)s3)C2)C1`, the Ki is greater than 10000 nM.

The compound `CN1CC[C@@H](N(C)C(=O)N2CC[C@@H](N(C)C(=O)c3ccc(-c4ccc(C(F)(F)F)cc4)s3)C2)C1` yielded a Ki of 150 nM.

Compound `CC(C)Oc1ccc(-c2ccc(C(=O)N(C)[C@H]3CCN(C(=O)N(C)[C@@H]4CCN(C)C4)C3)s2)cc1` had a Ki of 3300 nM.

Turning to `CN1CC[C@@H](N(C)C(=O)N2CC[C@H](N(C)C(=O)c3ccc(-c4ccc(Cl)cc4)s3)C2)C1`, the affinity corresponds to a Ki of 2 nM.
